Test results from a melting point compilation (Tetko et al.; mined from patent text by program, amines drawn as free bases though some values may be those of a salt).

First: CCCCCC(=O)OC(C)OC1=C(C(=O)Nc2ccccn2)N(C)S(=O)(=O)c2ccccc21 (stereo unspecified)
Second: CC[C@H](C)[C@H](NS(=O)(=O)c1cccc2ccccc12)C(=O)N[C@@H](Cc1c[nH]c2ccccc12)C(=O)O
The melting point of the first is lower: 62 to 65 °C for the first, 167 to 168 °C for the second.

First: CC(=O)Nc1nc(CCCN2CCN(C(c3ccccc3)c3ccccc3)CC2)cs1
Second: CN1CCC(Nc2nc3ccccc3n2Cc2ccccc2)CC1
The melting point of the first is higher: 213 to 215 °C for the first, 94 to 102 °C for the second.

Compared with `OC1(CCc2ccccc2)CCC2(CC1)OCCO2`, `O=C1c2cc(N3CCN(Cc4ccccc4)CC3)ccc2OC12CC2` is higher in melting point: 109 to 110 °C for the first, 125 to 126 °C for the second.

Compared with `Cc1cccc2c(/C=C/C(=O)O)cc(C(C)C)c(O)c12`, `COC(=O)c1cccc(C=CC(=O)c2cc(OC)ccc2OC)c1` is lower in melting point: 122 to 123 °C for the first, 108 to 110 °C for the second.

First: Cc1cccc(C2CCCN2S(=O)(=O)c2ccc(Cl)cc2)c1 (racemic)
Second: Cc1ccc(S(=O)(=O)N(O)S(=O)(=O)c2ccc(C)cc2)cc1
The melting point of the first is lower: 78 °C for the first, 125 to 126 °C for the second.

`CC(=O)N[C@@H](CC(C)C)C(=O)N[C@@H](C(C)C)[C@@H](O)c1c(-c2ccccc2)c1=O` and `CC(=O)OCC(C)(C(=O)OC(C)(C)C)C(=O)c1ccccc1` (stereo unspecified) cannot be ordered by melting point: 94 to 105 °C for the first, 95 to 97 °C for the second.

Compared with `COC(=O)C=C(Nc1coc2cc(OC)ccc2c1=O)C(=O)OC`, `COc1ccc(OC)c(Cc2nc3ccc(C)cc3c(=O)[nH]2)c1` is higher in melting point: 134 to 138 °C for the first, 188 to 189 °C for the second.

First: c1ccc(OCCn2ccnc2)cc1
Second: C(=Cc1ccc(-c2cnc(CSCCOc3ccccc3)o2)cc1)CN1CCCC1
The melting point of the first is higher: 88 °C for the first, 73 to 75 °C for the second.

Compared with `O=CCCNc1[nH]c(-c2ccc(F)cc2)nc1-c1ccccc1`, `Cc1oc(-c2ccccc2)nc1COc1ccc(Cn2cc(CCC(=O)O)c(-c3ccc(F)cc3)n2)cc1` is lower in melting point: 201 to 202 °C for the first, 139 to 140 °C for the second.

First: CC(C)OC(=O)C1C2CCC(C2)C1n1cc(F)c(=O)[nH]c1=O (stereo unspecified)
Second: O=C1C2CC(O)CCN2C(=O)N1c1ncc(Cl)cc1F (stereo unspecified)
The melting point of the first is lower: 135 to 136 °C for the first, 183 to 185 °C for the second.

Compared with `CN1C(=O)N(c2ccc(C#N)c(C(F)(F)F)c2)C(=O)C1(CO)c1ccccc1` (stereo unspecified), `O=C(O)c1ccc(C(F)(F)F)cc1-c1ccc2c(c1)OC[C@H](Cc1ccccc1)[C@H]2O` is lower in melting point: 160 °C for the first, 142 °C for the second.

First: Cc1nc(N2CCN(Cc3ccccc3)CC2)ncc1C(=O)O
Second: CC(C)(C)c1ccccc1N1CCN(C(=O)c2ncoc2CCC(=O)O)CC1
The melting point of the first is higher: 192 °C for the first, 180 to 181 °C for the second.

First: CSc1nc(C)cc(Cl)n1
Second: COc1ccc2nc(Cl)nc(N(C)c3ccccc3)c2c1
The melting point of the first is lower: 37 to 38 °C for the first, 133 to 134 °C for the second.

First: C=CCNC1=NS(=O)(=O)N=C1NCCSCc1ccc(CN(C)C)o1
Second: CCCCCCN(Cc1cccnc1)C(Nc1ccc(OC)cc1OC)=C1C(=O)OC(C)(C)OC1=O
The melting point of the first is lower: 83 to 86 °C for the first, 154 to 155 °C for the second.

First: O=C(O)C(Cl)Cc1ccccc1[N+](=O)[O-] (stereo unspecified)
Second: CC(C)(C)OC(=O)Cn1cc(C[C@@H](N)C(=O)O)c2ccccc21
The melting point of the first is lower: 108 to 109 °C for the first, 260 °C for the second.

First: O=C(CCl)N[C@@H]1CCCC[C@H]1NC(=O)CCl (relative stereo)
Second: O=C(C1CCCCC1CO)N1CCCC1 (stereo unspecified)
The melting point of the first is higher: 202 to 203 °C for the first, 115 °C for the second.

Compared with `O=C1Nc2cccc(-c3cncnc3)c2C12COc1cc3c(cc12)OCO3` (stereo unspecified), `CN(Cc1ccc(NC(=O)C2=Cc3cc(-c4ccc5c(c4)OCO5)ccc3SCC2)cc1)C1CCOCC1` is higher in melting point: 185 to 187 °C for the first, 193 to 194 °C for the second.

Compared with `COC(=O)[C@H](Cc1ccc(NC(=O)c2c(C)cccc2Cl)cc1)NC(=O)OC(C)(C)C`, `CC(C)(C)OC(=O)NCc1ccc(CN2CCC(c3ccccc3)CC2)cc1` is lower in melting point: 154 to 157 °C for the first, 73 to 74 °C for the second.

First: CC(=O)Nc1ccc(/C(=C/N2CCOCC2)C(=S)N2CCOCC2)cc1
Second: N#Cc1cnc2cc3c(cc2c1Cl)ncn3CCN1CCOCC1
The melting point of the first is lower: 145 to 147 °C for the first, 205 to 207 °C for the second.

First: CCOC(=O)CCc1cn(Cc2ccc(OCc3nc(-c4ccco4)oc3C)cc2)nc1O
Second: CCCCc1cc2ccccc2c(Oc2ccc(/C=C/C(=O)O)cc2)c1-c1ccc(O)cc1
The melting point of the first is higher: 145 to 146 °C for the first, 107 to 109 °C for the second.

First: CCOC(=O)c1cc2n(c1)CNc1ccc(Br)cc1-2
Second: CCOC(=O)c1cc2n(c1)C(C)Nc1ccccc1-2 (stereo unspecified)
The melting point of the first is higher: 169 to 171 °C for the first, 102 to 103 °C for the second.

First: Nc1ccc2nc(-c3ccc(Cl)cc3)sc2c1
Second: CCOC(=O)c1ccc(-c2coc(-c3ccc(Cl)cc3)n2)cc1
The melting point of the first is higher: 166 to 168 °C for the first, 153 to 154 °C for the second.

Compared with `Cc1ccc(CCCO)c(NCc2ccc3nc(NCCCN4CCOCC4)n(Cc4cccc5cccnc45)c3c2)c1`, `OCc1ccc2[nH]cc(CCCCN3CC=C(c4ccccc4)CC3)c2c1` is lower in melting point: 165 °C for the first, 162 to 164 °C for the second.

Compared with `Cc1c(NC(=O)CC(C)(C)C)cc2c(c1C)OC(C)(C)C2(O)CCc1ccccc1` (stereo unspecified), `COc1ccc(C(=O)Cc2ccccc2)c(O)c1` is lower in melting point: 99 to 100 °C for the first, 87 to 88 °C for the second.

First: CCCCS(=O)c1ccc(-n2[nH]c3ccccc3c2=O)cc1 (stereo unspecified)
Second: CCCCc1c2ccccc2c(C=O)c2ccccc12
The melting point of the first is higher: 168 to 169 °C for the first, 79 °C for the second.

Compared with `O=C(c1ccc(-c2ccccc2)cc1Cl)N1CCCC(Cc2nnn[nH]2)c2ccccc21` (stereo unspecified), `Cc1nccn1CCNC(=O)c1cccc2oc(-c3ccccc3)nc12` is lower in melting point: 191 to 194 °C for the first, 125 to 127 °C for the second.

First: O=c1c2c(c1=O)N(CCCP(=O)(O)O)CCCN2
Second: CCCCOc1c(C(=O)O)n(CC2CC2)c(=O)c2ccc(Br)cc12
The melting point of the first is higher: 244 to 248 °C for the first, 166 to 167 °C for the second.

First: CS(=O)(=O)c1ccc(C[C@@H](N)[C@H](O)C(=O)C2(C(=O)O)CC2N)cc1 (stereo partly specified)
Second: Cc1ccc(S(=O)(=O)OCC2(C)Cc3cc(Cl)cc(O)c3O2)cc1 (stereo unspecified)
The melting point of the first is higher: 256 to 258 °C for the first, 135 to 137 °C for the second.

Compared with `CCOC(=O)C1=C(CO)NC(CO)=C(C(=O)OCC)C1c1ccccc1Cl`, `CCCc1ccnc(C(=O)OCC)c1N` is lower in melting point: 190 to 191 °C for the first, 93 to 96 °C for the second.

Compared with `O=c1c2c(Cc3ccc(C(F)(F)F)cc3)n[nH]c2c2cccnc2n1-c1cccc(C(F)(F)F)c1`, `Cc1cc(=O)[nH]c2ccc(C(O)(C(F)(F)F)C(F)(F)F)cc12` is higher in melting point: 145 to 148 °C for the first, 157 to 158 °C for the second.

`Nn1cccc1C(=O)c1cccs1` and `C=C(CC)CNc1cccc(-c2ccnc3c(C(=O)c4cccs4)cnn23)c1` cannot be ordered by melting point: 81 to 82 °C for the first, 79 to 82 °C for the second.

First: CC(C)(C)C1=C(C#N)C(c2cccc(C#N)c2Br)c2c[nH]nc2N1 (stereo unspecified)
Second: N#Cc1cc(-c2cccc(Cl)c2)ccc1N
The melting point of the first is higher: 251 °C for the first, 118 to 119 °C for the second.

First: CON=CC1=CCCN(C(=O)OCC(N)=O)C1
Second: NC(=O)Cn1c(Cl)ccc1Cl
The melting point of the first is lower: 131 to 133 °C for the first, 183 to 184 °C for the second.

First: CCCCCCCCCCCCCCCCNc1ccc(COC(C)=O)cc1
Second: CCCNCCc1ccc(NS(=O)(=O)c2ccc(OC(F)(F)F)cc2)cc1
The melting point of the first is lower: 43 to 45 °C for the first, 151 to 154 °C for the second.

First: Nc1nc(-n2cc(C(=O)O)c(=O)c3cc(F)c(F)c(Br)c32)c(F)cc1F
Second: COc1ccc(C(=O)O)c(Sc2ccc(SC)cc2)c1
The melting point of the first is higher: 272 to 278 °C for the first, 202 to 203 °C for the second.

First: CN(C)c1ncc(-c2cccc(Nc3ccc(-c4ccoc4)cc3[N+](=O)[O-])c2)cn1
Second: CCc1cc(-c2ccc(OC)cc2)ccc1[N+](=O)[O-]
The melting point of the first is higher: 181 to 182 °C for the first, 94 to 95 °C for the second.

First: CNC(=O)c1cn(C)nc1[N+](=O)[O-]
Second: CN(C(=O)CCS(C)(=O)=O)c1cn(-c2cccnc2)nc1Cl
The melting point of the first is higher: 163 to 165 °C for the first, 90 to 91 °C for the second.

First: CCOC(=O)c1cn(-c2ccc(OC)c(OC)c2)cn1
Second: COc1cc2c(cc1Nc1ncc(Cl)c(Nc3cccnc3OC)n1)CCN(CC(=O)N(C)C)CC2
The melting point of the first is higher: 125 to 126 °C for the first, 68 to 76 °C for the second.

Compared with `CC(Cc1cccc(N)c1)NC=O` (stereo unspecified), `Nc1ncc(S(=O)c2ccc(F)cc2F)s1` (stereo unspecified) is higher in melting point: 107 to 108 °C for the first, 171 to 172 °C for the second.

First: N#CCCCN1CCN(c2nc3nccc(-c4ccncc4)n3n2)CC1
Second: COc1ccc(-c2sc3cc(O)ccc3c2Oc2ccc(OCCN3CCCCC3)cc2)cc1
The melting point of the first is lower: 147 to 148 °C for the first, 157 °C for the second.

First: Cc1nc2ccc3c(c2nc1C)OC(CN1CC=C(c2c[nH]c4ccc(F)cc24)CC1)CO3 (stereo unspecified)
Second: Cn1ncnc1COc1nn2c(-c3ccccc3F)nncc2c1-c1ccc(F)cc1
The melting point of the first is lower: 138 to 141 °C for the first, 192 °C for the second.

First: O=C(NN1CCCCC1)c1nn(-c2ccc(Cl)cc2Cl)c(-c2ccc(Cl)cc2)c1COCCO
Second: CSc1ccc(-c2nn(CC3CC3)c(=S)cc2-c2ccc(Cl)cc2)cc1
The melting point of the first is higher: 194 °C for the first, 135 °C for the second.

Compared with `CON=C(C(=O)OC)C1=C(C(=O)c2ccc(F)cc2)CC(C)=C(C)C1`, `CCCc1c(OCC2Cc3cc(C(=O)CCC(=O)O)ccc3O2)ccc(C(C)=O)c1O` (stereo unspecified) is lower in melting point: 97 to 98 °C for the first, 80 °C for the second.

First: CC1(C)C(=O)N(c2ccnc(NC(=O)NCc3ccccn3)c2)c2cccnc21
Second: CC1(C)Oc2ccc(C#N)cc2C2C1OC(=O)CN2c1ccccc1 (stereo unspecified)
The melting point of the first is lower: 160 to 163 °C for the first, 241 to 243 °C for the second.

First: C=C(C)C(=O)OC(c1ccccc1)(c1ccccc1)c1ccncc1
Second: c1ccc(COc2cccc(OCc3ccccc3)n2)cc1
The melting point of the first is higher: 98.5 to 99.5 °C for the first, 74 °C for the second.

First: CC(C)(C)c1cc(-c2nc3n(c2SC#N)CCS3)cc(C(C)(C)C)c1O
Second: COc1cc(OC)nc(NCC2COC3(CCC(C(C)(C)C)CC3)O2)n1 (stereo unspecified)
The melting point of the first is higher: 178 to 179 °C for the first, 76 to 106 °C for the second.

First: O=C(O)CCCC=C(c1ccccc1)c1ccccc1
Second: Cc1ccc(C2(Cl)c3ccccc3C(=O)c3ccccc32)cc1
The melting point of the first is lower: 111 to 112 °C for the first, 136 to 140 °C for the second.

First: CC1(O)C(CO)OC(n2cnc3c(N)ncnc32)C1(C)O (stereo unspecified)
Second: CCOCC1OC(n2cnc3c(N)ncnc32)C(O)C1O (stereo unspecified)
The melting point of the first is higher: 180 °C for the first, 110 to 112 °C for the second.

Compared with `Cn1cc(C2=C(c3cn(CCCNS(=O)(=O)c4ccccc4)c4ccccc34)C(=O)NC2=O)c2ccccc21`, `CC(C)(C)OC(=O)[C@@H]1CCCN2C(=O)CC[C@H](NC(=O)OCC3c4ccccc4-c4ccccc43)C(=O)N12` is higher in melting point: 125 to 128 °C for the first, 190 to 192 °C for the second.

First: CC(=O)OC1CCC2(C)C(CCC3C2CCC2(C)C(C(=O)C=[N+]=[N-])CCC32)C1 (stereo unspecified)
Second: COC(c1ccc(NC(=O)c2c(C)nn(C)c2C)cc1CC(C)C)(C(F)(F)F)C(F)(F)F
The melting point of the first is lower: 135 to 136 °C for the first, 189 to 190 °C for the second.

For `O=C(CBr)c1ccc2nnnn2c1`, the melting point was 108 to 110 °C.
